According to ChEMBL document CHEMBL3124811, “Potent and selective double-headed thiophene-2-carboximidamide inhibitors of neuronal nitric oxide synthase for the treatment of melanoma” (J Med Chem, 2014):
pKi: −log10 of the molar value.

Key:
Nitric oxide synthase 1 = Nitric oxide synthase 1 (Rattus norvegicus, UniProt P29476)
Nitric oxide synthase 3 = target: T1, Nitric oxide synthase 3 (Bos taurus, UniProt P29473)
T1 sequence (P29473 whole entry): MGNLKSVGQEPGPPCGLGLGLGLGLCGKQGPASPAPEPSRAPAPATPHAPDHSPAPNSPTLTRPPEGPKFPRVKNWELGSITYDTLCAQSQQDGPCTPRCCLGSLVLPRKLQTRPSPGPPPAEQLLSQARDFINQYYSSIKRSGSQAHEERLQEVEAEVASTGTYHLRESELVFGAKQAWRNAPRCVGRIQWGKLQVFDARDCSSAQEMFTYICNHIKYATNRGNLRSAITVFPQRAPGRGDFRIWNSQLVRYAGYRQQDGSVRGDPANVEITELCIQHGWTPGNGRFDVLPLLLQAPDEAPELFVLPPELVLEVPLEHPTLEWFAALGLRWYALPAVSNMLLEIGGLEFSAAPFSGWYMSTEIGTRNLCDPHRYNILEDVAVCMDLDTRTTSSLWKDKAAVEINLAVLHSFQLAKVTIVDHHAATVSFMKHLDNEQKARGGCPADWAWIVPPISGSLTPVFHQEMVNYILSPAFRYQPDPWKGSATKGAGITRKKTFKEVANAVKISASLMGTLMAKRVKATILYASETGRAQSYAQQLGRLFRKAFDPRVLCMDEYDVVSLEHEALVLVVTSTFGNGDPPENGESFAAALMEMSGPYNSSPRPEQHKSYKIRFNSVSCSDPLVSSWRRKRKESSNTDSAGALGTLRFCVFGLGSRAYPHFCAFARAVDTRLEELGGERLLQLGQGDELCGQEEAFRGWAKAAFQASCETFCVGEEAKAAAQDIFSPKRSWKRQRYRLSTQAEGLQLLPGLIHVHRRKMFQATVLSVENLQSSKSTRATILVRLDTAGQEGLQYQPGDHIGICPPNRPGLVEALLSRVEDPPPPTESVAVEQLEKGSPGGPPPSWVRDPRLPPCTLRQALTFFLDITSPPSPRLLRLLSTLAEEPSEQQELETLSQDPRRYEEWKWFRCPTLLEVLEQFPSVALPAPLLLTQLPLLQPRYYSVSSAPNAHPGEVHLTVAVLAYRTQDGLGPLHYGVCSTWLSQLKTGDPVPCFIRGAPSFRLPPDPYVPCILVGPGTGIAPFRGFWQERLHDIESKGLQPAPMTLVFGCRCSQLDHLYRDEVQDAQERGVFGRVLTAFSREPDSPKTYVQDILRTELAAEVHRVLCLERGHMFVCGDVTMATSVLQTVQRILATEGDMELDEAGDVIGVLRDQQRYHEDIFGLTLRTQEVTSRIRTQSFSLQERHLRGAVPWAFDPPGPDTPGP

[1] = target: T2, Nitric oxide synthase, inducible (Mus musculus, UniProt P29477)
T2 sequence (P29477 whole entry): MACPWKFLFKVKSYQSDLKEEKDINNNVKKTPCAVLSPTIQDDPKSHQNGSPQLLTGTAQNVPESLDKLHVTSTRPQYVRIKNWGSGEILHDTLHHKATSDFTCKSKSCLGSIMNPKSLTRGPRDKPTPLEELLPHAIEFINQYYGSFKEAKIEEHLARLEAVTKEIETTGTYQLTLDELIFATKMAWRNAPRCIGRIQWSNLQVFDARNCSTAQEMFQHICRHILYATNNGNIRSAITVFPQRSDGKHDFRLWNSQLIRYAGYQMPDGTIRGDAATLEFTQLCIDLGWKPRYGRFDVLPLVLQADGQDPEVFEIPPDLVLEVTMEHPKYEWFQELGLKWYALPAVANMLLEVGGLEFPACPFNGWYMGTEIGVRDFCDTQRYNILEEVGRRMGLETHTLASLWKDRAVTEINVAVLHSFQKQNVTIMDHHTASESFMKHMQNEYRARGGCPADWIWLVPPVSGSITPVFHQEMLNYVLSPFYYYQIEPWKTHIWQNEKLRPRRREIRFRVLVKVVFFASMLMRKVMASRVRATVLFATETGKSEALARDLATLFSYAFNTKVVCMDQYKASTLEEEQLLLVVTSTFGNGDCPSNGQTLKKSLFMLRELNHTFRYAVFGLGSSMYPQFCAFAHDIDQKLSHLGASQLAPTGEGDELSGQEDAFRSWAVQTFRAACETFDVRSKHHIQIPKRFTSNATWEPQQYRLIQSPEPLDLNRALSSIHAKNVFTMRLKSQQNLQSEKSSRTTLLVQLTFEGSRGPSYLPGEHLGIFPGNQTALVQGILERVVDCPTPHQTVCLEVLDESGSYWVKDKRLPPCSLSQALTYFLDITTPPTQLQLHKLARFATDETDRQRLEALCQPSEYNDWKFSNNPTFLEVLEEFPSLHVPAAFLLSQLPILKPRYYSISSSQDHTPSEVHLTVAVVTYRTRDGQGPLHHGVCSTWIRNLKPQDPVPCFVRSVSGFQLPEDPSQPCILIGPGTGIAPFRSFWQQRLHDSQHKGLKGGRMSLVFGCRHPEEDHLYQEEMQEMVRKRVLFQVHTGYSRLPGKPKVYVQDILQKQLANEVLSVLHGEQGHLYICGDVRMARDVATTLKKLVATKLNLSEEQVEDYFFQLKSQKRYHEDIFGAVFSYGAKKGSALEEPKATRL

[2] = Selectivity ratio of Ki(app) for recombinant mouse iNOS to Ki(app) for recombinant rat nNOS
[3] = Selectivity ratio of Ki(app) for recombinant bovine eNOS to Ki(app) for recombinant rat nNOS

Chain of Nitric oxide synthase 1 (P29476 whole entry): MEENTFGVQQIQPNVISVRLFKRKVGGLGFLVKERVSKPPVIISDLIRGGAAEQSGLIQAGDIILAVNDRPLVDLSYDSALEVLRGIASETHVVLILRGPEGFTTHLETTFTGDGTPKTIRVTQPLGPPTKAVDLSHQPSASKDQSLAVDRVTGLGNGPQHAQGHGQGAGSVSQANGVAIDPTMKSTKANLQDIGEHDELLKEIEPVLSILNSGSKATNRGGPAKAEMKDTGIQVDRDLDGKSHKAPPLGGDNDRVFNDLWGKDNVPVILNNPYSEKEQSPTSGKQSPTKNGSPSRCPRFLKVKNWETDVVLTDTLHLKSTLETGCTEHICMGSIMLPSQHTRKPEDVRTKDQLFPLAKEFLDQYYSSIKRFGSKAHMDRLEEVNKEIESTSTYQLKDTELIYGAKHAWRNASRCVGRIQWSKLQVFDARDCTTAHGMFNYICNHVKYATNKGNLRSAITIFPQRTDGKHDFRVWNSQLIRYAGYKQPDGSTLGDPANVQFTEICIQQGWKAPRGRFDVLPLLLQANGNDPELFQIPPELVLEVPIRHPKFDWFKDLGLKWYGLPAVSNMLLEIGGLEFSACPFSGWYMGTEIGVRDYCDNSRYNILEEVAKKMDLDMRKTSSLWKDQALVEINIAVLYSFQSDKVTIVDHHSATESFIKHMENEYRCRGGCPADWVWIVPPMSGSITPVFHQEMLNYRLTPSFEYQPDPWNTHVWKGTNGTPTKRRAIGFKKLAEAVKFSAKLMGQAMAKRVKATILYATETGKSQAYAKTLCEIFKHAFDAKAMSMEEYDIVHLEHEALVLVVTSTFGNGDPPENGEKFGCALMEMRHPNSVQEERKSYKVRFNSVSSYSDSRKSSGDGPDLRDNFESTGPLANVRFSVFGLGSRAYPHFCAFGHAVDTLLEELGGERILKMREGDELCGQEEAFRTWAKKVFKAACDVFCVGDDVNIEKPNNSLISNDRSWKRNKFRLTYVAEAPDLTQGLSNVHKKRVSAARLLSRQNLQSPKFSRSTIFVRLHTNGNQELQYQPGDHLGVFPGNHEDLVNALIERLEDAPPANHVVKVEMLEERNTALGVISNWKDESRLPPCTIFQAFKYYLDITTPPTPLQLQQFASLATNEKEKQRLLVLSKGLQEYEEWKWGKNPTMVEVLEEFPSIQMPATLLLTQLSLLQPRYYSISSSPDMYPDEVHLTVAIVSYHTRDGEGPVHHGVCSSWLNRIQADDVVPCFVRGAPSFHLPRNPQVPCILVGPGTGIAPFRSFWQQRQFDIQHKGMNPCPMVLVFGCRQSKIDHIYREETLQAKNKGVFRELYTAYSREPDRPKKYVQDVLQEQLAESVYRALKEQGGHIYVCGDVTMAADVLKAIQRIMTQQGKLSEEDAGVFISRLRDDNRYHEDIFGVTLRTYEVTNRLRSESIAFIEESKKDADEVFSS

Structure (SMILES)	pKi (Nitric oxide synthase 1)	pKi (Nitric oxide synthase 3)	pKi [1]	Ratio Ki(app) [2]	Ratio Ki(app) [3]
N=C(Nc1cccc(OCCCOc2cccc(NC(=N)c3cccs3)c2)c1)c1cccs1	6.63	5.40	4.90	53	17
NC(=Nc1cccc(Cc2cccc(N=C(N)c3cccs3)c2)c1)c1cccs1		3.88	4.10		
N=C(Nc1cccc(CCc2cccc(NC(=N)c3cccs3)c2)c1)c1cccs1	6.13	4.18	3.98	141	89
N=C(Nc1cccc(OCCOc2cccc(NC(=N)c3cccs3)c2)c1)c1cccs1				513	105
NC(=Nc1cccc(OCCOc2cccc(N=C(N)c3cccs3)c2)c1)c1cccs1	6.89	4.86	4.18		
N=C(Nc1cccc(-c2cccc(NC(=N)c3cccs3)c2)c1)c1cccs1	6.10	3.75	4.18	84	225
